From patent US5804599A, “Interleukin-1 production inhibiting compound” (Kyowa Hakko Kogyo Co., Ltd., priority 1994, dated 1998)
Values after ≈ are worked out from the molar mass of the structure shown. Like-named read-outs stand apart in the source and are kept apart here.

How the values were obtained:
bacteria = details: in words; cited from earlier work
IL-1 β = experiment: Inhibiting activity of the production of IL-1 (LPS-stimulated, PMA-differentiated THP-1 cells, ELISA); type: cell-based; details: Homo sapiens, read-out: IC50 (50% inhibitory concentration) of IL-1 production
Experimental: Inhibiting Activity of the production of IL-1
With respect to Compound (I) of the present invention, the inhibiting activity of production of IL-1 β derived from THP-1 cells (ATCC No. TIB 202) of a human monocyte was examined. The amount of IL-1 β was determined by the ELISA method.
The THP-1 cells were suspended in an RPMI 1640 culture solution comprising 10% inactivated fetal bovine serum at a concentration of 1×10^5 cells/ml. The suspension was charged in a 24-well plate at a volume of 1 ml/well. PMA (phorbol 12-myristate 13-acetate, made by Wako Pure Chemical Industries, Ltd.; final concentration 30 nM) was added thereto, and the mixture was cultured in a mixed gas of 5% CO2 and 95% air at 37° C. for 65 hours. The cells were differentiated in a macrophage form.
The cultivation plate was gently washed with a serum-free RPMI 1640 culture solution to remove the cells not adhered thereto, and the residue was cultured for 4 hours in a serum-free RPMI 1640 culture solution (1 ml/well) to which LPS (lipopolysaccharide, made by Difco Laboratories; a final concentration 25 μg/ml) and a compound to be tested were added simultaneously.
After the completion of the cultivation, the amount of IL-1 β which was released in the cultivated supernatant was determined using an IL-1 β determination kit (made by Amersham Corp.).
Percent inhibition of IL-1 production was calculated using the following equation to obtain IC50 (50% inhibitory concentration).
Percent inhibition of IL-1 production (%) =[(A-B)/(A-C)]×100
A: amount of IL-1 produced when only LPS is added
B: amount of IL-1 produced when LPS and the compound to be tested are added
C: amount of IL-1 when LPS is not added

[1] = system: Bacillus subtilis No. 10707; experiment: Antibacterial activity (MIC), agar dilution method; type: cell-based; details: pH 7.0
Experimental: (§1) Antibacterial activity was determined by an agar dilution method using a medium (pH 7.0) comprising 3 g/l bactotrypton (made by Difco Laboratories), 3 g/l meat extract, 1 g/l yeast extract, 1 g/l glucose and 16 g/l agar.

[2] = system: Staphylococcus aureus ATCC 6538P; experiment: Antibacterial activity (MIC), agar dilution method; type: cell-based; details: ATCC6538P, pH 7.0
Experimental: as §1

[3] = system: Enterococcus faecium ATCC 10541; experiment: Antibacterial activity (MIC), agar dilution method; type: cell-based; details: ATCC10541, pH 7.0
Experimental: as §1

[4] = IL-1 β release from THP-1 cells, LPS 25 μg/ml, 4 hours, serum-free RPMI 1640

Row | SMILES | antibacterial activity (bacteria) | MIC [1] | MIC [2] | MIC [3] | further results
1 | O=C(/C=C/C=C/C1CCCCC1)NC1=CC(O)(/C=C/C=C/C=C/C(=O)NC2=C(O)CCC2=O)C2OC2C1=O (stereo not drawn) [Alisamycin] | known to exhibit antibacterial activity |  |  |  | 
2 | CC(C)C/C=C/C=C/C(=O)NC1=CC(O)(/C=C/C=C/C=C/C(=O)NC2=C(O)CCC2=O)C2OC2C1=O (stereo not drawn) [EI-1511-3] |  | 20 µg/mL (≈ 40.4 µM) | 20 µg/mL (≈ 40.4 µM) | 20 µg/mL (≈ 40.4 µM) | IC50 (IL-1 β; [4]): 5.4 µM; Solubility (Solubility; in acetone): easily soluble; Solubility (Solubility; in dimethyl sulfoxide): easily soluble; Solubility (Solubility; in methanol): soluble
3 | CCC(C)/C=C/C=C/C=C/C(=O)NC1=CC(O)(/C=C/C=C/C=C/C(=O)NC2=C(O)CCC2=O)C2OC2C1=O (stereo not drawn) [EI-1511-5] |  | 20 µg/mL (≈ 38.4 µM) | 20 µg/mL (≈ 38.4 µM) | 20 µg/mL (≈ 38.4 µM) | IC50 (IL-1 β; THP-1, 4 h): 3.6 µM; Solubility (Solubility; in acetone): easily soluble; Solubility (Solubility; in dimethyl sulfoxide): easily soluble; Solubility (Solubility; in methanol): soluble
4 | CCCCC(C)/C=C/C(=O)NC1=CC(O)(/C=C/C=C/C=C/C(=O)NC2=C(O)CCC2=O)C2OC2C1=O (stereo not drawn) [EI-1625-2] |  | 5 µg/mL (≈ 10.1 µM) | 10 µg/mL (≈ 20.1 µM) | 20 µg/mL (≈ 40.3 µM) | IC50 (IL-1 β; [4]): 5.4 µM
5 | CCCC[C@@H](C)/C=C(C)/C=C(\C)C(=O)NC1=C[C@@](O)(/C=C/C=C/C=C/C(=O)NC2=C(O)CCC2=O)[C@@H]2O[C@@H]2C1=O [Manumycin A] | known to exhibit antibacterial activity |  |  |  | 
6 | CCCCC(C)/C=C(\C)C(=O)NC1=CC(O)(/C=C/C=C/C=C/C(=O)NC2=C(O)CCC2=O)C2OC2C1=O (stereo not drawn) [Manumycin B] | known to exhibit antibacterial activity |  |  |  | 
7 | CCCCC(C)/C=C(C)/C=C/C(=O)NC1=CC(O)(/C=C/C=C/C=C/C(=O)NC2=C(O)CCC2=O)C2OC2C1=O (stereo not drawn) [Manumycin C] | known to exhibit antibacterial activity |  |  |  | 
8 | CC(C)/C=C/C=C/C=C/C(=O)NC1=C[C@@](O)(/C=C/C=C/C=C/C(=O)NC2=C(O)CCC2=O)C2OC2C1=O (stereo partly drawn) [Manumycin G] | known to exhibit antibacterial activity |  |  |  | 
9 | CC(C)C/C=C/C=C/C=C/C(=O)NC1=CC(O)(/C=C/C=C/C=C/C(=O)NC2=C(O)CCC2=O)C2OC2C1=O (stereo not drawn) [U-56407] | known to exhibit antibacterial activity |  |  |  | 
